Measured values reported in PubChem BioAssay (NCI).
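GI50 marks 50% less growth. TGI: total growth inhibition.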

Key:
Test in all cases: NCI anticancer screen, dose series, 384-well format
786-0 renal = system: 786-0 renal
A498 renal = system: A498 renal
A549 NSCLC = system: A549 NSCLC
ACHN renal = system: ACHN renal
BT-549 breast = system: BT-549 breast
CAKI-1 renal = system: CAKI-1 renal
CCRF-CEM leukemia = system: CCRF-CEM leukemia
COLO 205 colon = system: COLO 205 colon
DU-145 prostate = system: DU-145 prostate
EKVX NSCLC = system: EKVX NSCLC
HCC-2998 colon = system: HCC-2998 colon
HCT-116 colon = system: HCT-116 colon
HCT-15 colon = system: HCT-15 colon
HL-60(TB) leukemia = system: HL-60(TB) leukemia
HOP-62 NSCLC = system: HOP-62 NSCLC
HOP-92 NSCLC = system: HOP-92 NSCLC
HS 578T breast = system: HS 578T breast
HT29 colon = system: HT29 colon
IGROV1 ovarian = system: IGROV1 ovarian
K-562 leukemia = system: K-562 leukemia
KM12 colon = system: KM12 colon
LOX IMVI melanoma = system: LOX IMVI melanoma
M14 melanoma = system: M14 melanoma
MALME-3M melanoma = system: MALME-3M melanoma
MCF7 breast = system: MCF7 breast
MDA-MB-231 breast = system: MDA-MB-231 breast
MDA-MB-435 melanoma = system: MDA-MB-435 melanoma
MDA-MB-468 breast = system: MDA-MB-468 breast
MOLT-4 leukemia = system: MOLT-4 leukemia
NCI-H226 lung = system: NCI-H226 lung
NCI-H23 lung = system: NCI-H23 lung
NCI-H322M lung = system: NCI-H322M lung
NCI-H460 NSCLC = system: NCI-H460 NSCLC
NCI-H522 lung = system: NCI-H522 lung
NCI/ADR-RES ovarian = system: NCI/ADR-RES ovarian
OVCAR-3 ovarian = system: OVCAR-3 ovarian
OVCAR-4 ovarian = system: OVCAR-4 ovarian
OVCAR-5 ovarian = system: OVCAR-5 ovarian
OVCAR-8 ovarian = system: OVCAR-8 ovarian
PC-3 prostate = system: PC-3 prostate
RPMI-8226 leukemia = system: RPMI-8226 leukemia
RXF 393 renal = system: RXF 393 renal
SF-268 CNS = system: SF-268 CNS
SF-295 CNS = system: SF-295 CNS
SF-539 CNS = system: SF-539 CNS
SK-MEL-28 melanoma = system: SK-MEL-28 melanoma
SK-MEL-5 melanoma = system: SK-MEL-5 melanoma
SK-OV-3 ovarian = system: SK-OV-3 ovarian
SN12C renal = system: SN12C renal
SNB-19 CNS = system: SNB-19 CNS
SNB-75 CNS = system: SNB-75 CNS
SW-620 colon = system: SW-620 colon
T-47D breast = system: T-47D breast
TK-10 renal = system: TK-10 renal
U251 glioblastoma = system: U251 glioblastoma
UACC-257 melanoma = system: UACC-257 melanoma
UACC-62 melanoma = system: UACC-62 melanoma
UO-31 renal = system: UO-31 renal

Question: Which results are given for Cc1ccc(-n2nc(C(C)(C)C)cc2NC(=O)NCc2cc(F)ccc2Oc2ccc3c(cnn3CCO)c2)cc1?
Answer: GI50 ([…]-0 renal): 4.93 µM; TGI (786-0 renal): > 100 µM; GI50 (A498 renal): 8.98 µM; TGI (A498 renal): 71.8 µM; GI50 (A549 NSCLC): 7.81 µM; TGI (A549 NSCLC): > 100 µM; GI50 (ACHN renal): 3.28 µM; TGI (ACHN renal): 62.9 µM; GI50 (BT-549 breast): 4.9 µM; TGI (BT-549 breast): 27.2 µM; GI50 (CAKI-1 renal): 3.07 µM; TGI (CAKI-1 renal): > 100 µM; GI50 (CCRF-CEM leukemia): 4.51 µM; TGI (CCRF-CEM leukemia): 16.7 µM; GI50 (COLO 205 colon): 1.26 µM; TGI (COLO 205 colon): 12.3 µM; GI50 (DU-145 prostate): 15 µM; TGI (DU-145 prostate): > 100 µM; GI50 (EKVX NSCLC): 4.58 µM; TGI (EKVX NSCLC): 27.7 µM; GI50 (HCC-2998 colon): 3.47 µM; TGI (HCC-2998 colon): 13.2 µM; GI50 (HCT-116 colon): 3.13 µM; TGI (HCT-116 colon): 16 µM; GI50 (HCT-15 colon): 5.14 µM; TGI (HCT-15 colon): > 100 µM; GI50 (HL-60(TB) leukemia): 1.67 µM; TGI (HL-60(TB) leukemia): 4.48 µM; GI50 (HOP-62 NSCLC): 4.67 µM; TGI (HOP-62 NSCLC): 27.1 µM; GI50 (HOP-92 NSCLC): 4.1 µM; TGI (HOP-92 NSCLC): 29.8 µM; GI50 (HS 578T breast): 2.63 µM; TGI (HS 578T breast): 15.6 µM; GI50 (HT29 colon): 1.86 µM; TGI (HT29 colon): 13.8 µM; GI50 (IGROV1 ovarian): 2.39 µM; TGI (IGROV1 ovarian): 18 µM; TGI (K-562 leukemia): 0.0258 µM; GI50 (KM12 colon): 1.56 µM; TGI (KM12 colon): 11.9 µM; GI50 (LOX IMVI melanoma): 1.62 µM; TGI (LOX IMVI melanoma): 4.41 µM; GI50 (M14 melanoma): 0.427 µM; TGI (M14 melanoma): 3.11 µM; GI50 (MALME-3M melanoma): 0.357 µM; TGI (MALME-3M melanoma): 1.49 µM; GI50 (MCF7 breast): 2.7 µM; TGI (MCF7 breast): 14.3 µM; GI50 (MDA-MB-231 breast): 3.17 µM; TGI (MDA-MB-231 breast): > 100 µM; GI50 (MDA-MB-435 melanoma): 2.74 µM; TGI (MDA-MB-435 melanoma): 89.2 µM; GI50 (MDA-MB-468 breast): 4.56 µM; TGI (MDA-MB-468 breast): 15 µM; GI50 (MOLT-4 leukemia): 1.9 µM; TGI (MOLT-4 leukemia): 5.02 µM; GI50 (NCI-H226 lung): 0.44 µM; TGI (NCI-H226 lung): 13.3 µM; GI50 (NCI-H23 lung): 1.78 µM; TGI (NCI-H23 lung): 6.08 µM; GI50 (NCI-H322M lung): 6.36 µM; TGI (NCI-H322M lung): > 100 µM; GI50 (NCI-H460 NSCLC): 6.4 µM; TGI (NCI-H460 NSCLC): 20.6 µM; GI50 (NCI-H522 lung): 3.91 µM; TGI (NCI-H522 lung): 17.1 µM; GI50 (NCI/ADR-RES ovarian): 7.83 µM; TGI (NCI/ADR-RES ovarian): 66.4 µM; GI50 (OVCAR-3 ovarian): 8.85 µM; TGI (OVCAR-3 ovarian): 24.3 µM; GI50 (OVCAR-4 ovarian): 12.5 µM; TGI (OVCAR-4 ovarian): 31.8 µM; GI50 (OVCAR-5 ovarian): 4.52 µM; TGI (OVCAR-5 ovarian): 50.9 µM; GI50 (OVCAR-8 ovarian): 13 µM; TGI (OVCAR-8 ovarian): > 100 µM; GI50 (PC-3 prostate): 6.72 µM; TGI (PC-3 prostate): 53.1 µM; GI50 (RPMI-8226 leukemia): 4.07 µM; TGI (RPMI-8226 leukemia): 32 µM; GI50 (RXF 393 renal): 3.38 µM; TGI (RXF 393 renal): 14.5 µM; GI50 (SF-268 CNS): 0.0455 µM; TGI (SF-268 CNS): 1.62 µM; GI50 (SF-295 CNS): 18 µM; TGI (SF-295 CNS): > 100 µM; GI50 (SF-539 CNS): 2.72 µM; TGI (SF-539 CNS): 28.6 µM; GI50 (SK-MEL-28 melanoma): 1.26 µM; TGI (SK-MEL-28 melanoma): 4.32 µM; GI50 (SK-MEL-5 melanoma): 1.06 µM; TGI (SK-MEL-5 melanoma): 6.63 µM; GI50 (SK-OV-3 ovarian): 9.15 µM; TGI (SK-OV-3 ovarian): > 100 µM; GI50 (SN12C renal): 3.94 µM; TGI (SN12C renal): 33 µM; GI50 (SNB-19 CNS): 29.1 µM; TGI (SNB-19 CNS): > 100 µM; GI50 (SNB-75 CNS): 12.2 µM; TGI (SNB-75 CNS): 89 µM; GI50 (SW-620 colon): 10.5 µM; TGI (SW-620 colon): > 100 µM; GI50 (T-47D breast): 1.82 µM; TGI (T-47D breast): 8.64 µM; GI50 (TK-10 renal): 13.9 µM; TGI (TK-10 renal): 87.4 µM; GI50 (U251 glioblastoma): 10.3 µM; TGI (U251 glioblastoma): > 100 µM; GI50 (UACC-257 melanoma): 1.87 µM; TGI (UACC-257 melanoma): 5.7 µM; GI50 (UACC-62 melanoma): 0.665 µM; TGI (UACC-62 melanoma): 5.74 µM; GI50 (UO-31 renal): 3.16 µM; TGI (UO-31 renal): 20.8 µM
